The source of these data is US5728686A, “Alkylxanthine phosphonates and alkylxanthine phosphine oxides and their use as pharmaceuticals” (Hoechst Aktiengesellschaft, priority 1996, dated 1998).

In assay [1] the test system is isolated guinea pig trachea, agonist PGF2α. Put plainly: antagonist of PGF2α-induced contraction of isolated guinea pig trachea. It is filed as cell-based. To be noted: Cavia porcellus, 37° C., read-out: Anticontractile action (trachea), PGF2α: concentration range for dilatation corresponding to ED50 range. An excerpt: (§1) 3. Activity as antagonist of the contraction of isolated guinea pig trachea
(§2) The compounds of the formula I are used as antagonists of the contraction of isolated guinea pig trachea. The agonists employed were PGF2α (Upjohn, Germany), calcium ionophore A23187 (Calbiochem, Bad Soden, Germany), and substance P (American Peptide Comp., USA):
Inhibition of contractions which are induced by this cyclooxygenase product is only possible by competitive antagonism at the receptor or of the subsequent signal pathway.
(§3) Preparation of the organ sections and experimental procedure:
(§4) The guinea pig is sacrificed by means of terminal laughing gas anaesthesia. The trachea is exposed along its entire length and cut into 15 individual cartilage rings. 5 rings in each case are tied together to give a chain and fixed in the organ bath under a preload of 3 g. After an equilibration time of 45 minutes, a contraction is produced using the agonist. The antagonist (test preparation) is added cumulatively on the plateau of the maximum. Evaluation is carried out in % force change relative to the contraction maximum. The experimental procedure is carried out at 37° C.; the physiological nutrient solution used is a modified Krebs-Henseleit solution through which is bubbled 95% by volume of O2, 5% by volume of CO2.
(§5) Experimental animals: albino guinea pigs (Hattersheim Animal Breeding Institute, Kastengrund, Germany), weight: 200 to 300 g, sex male or female.
(§6) Vehicle: double-distilled water, ethanol or isopropanol; administration: into the organ bath number of administration: cumulative, in SP individual doses
(§7) All numerical values are indicated in the unit μg/ml and relate to the concentration range of the tested compound of the formula I according to the invention (see example numbers in Table 1) which is necessary in order to cause a dilatation which corresponds to the ED50 range.

Assay [2] deals with isolated guinea pig trachea, agonist calcium ionophore A23187. Put plainly: antagonist of calcium ionophore A23187-induced contraction of isolated guinea pig trachea. The settings on record: Cavia porcellus, 37° C., read-out: Anticontractile action (trachea), Ca ionophore: concentration range for dilatation corresponding to ED50 range. Format: cell-based.
Description: as §1, §2
b) Calcium ionophore A23187 (Calbiochem, Bad Soden) acts by increased uptake of calcium ions, and an activation of all calcium-dependent signal cascades in the cell. Lipoxygenase inhibitors, in particular, and generally antiinflammatory substances show effects in this model.
as §3, §4, §5, §6, §7

Assay [3] relates to isolated guinea pig lung strips, leukotriene D4 (LTD4). Put plainly: antagonist of LTD4-induced contraction of isolated guinea pig lung strips. Format: cell-based. The settings on record: Cavia porcellus, read-out: Anticontractile action (lung), LTD4: concentration range corresponding to the IC50 value. In a few lines: (§8)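 Guinea pig lung strips, 3 mm wide, held at 4 g preload in modified Krebs-Henseleit at 37° C, gassed 95% O2/5% CO2, contracted by PAF or LTD4. Compound given cumulatively at 1, 3, 6 and 10 μg/ml; value is the concentration in μg/ml giving IC50-level effect.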

Assay [4] has as its system isolated guinea pig lung strips, Platelet activating factor (PAF). Put plainly: antagonist of PAF-induced contraction of isolated guinea pig lung strips. To be noted: Cavia porcellus, read-out: Anticontractile action (lung), PAF: concentration range corresponding to the IC50 value. It is filed as cell-based. In a few lines:
as §8

Assay [5] concerns Endotoxin (LPS) from Salmonella abortus equi. Put plainly: effect on endotoxin fatality (LPS-induced septic shock). It is filed as in vivo, female NMRI mice. To be noted: 25 mg/kg i.p. at the same time as LPS 60 mg/kg i.p.; 72 hours; vs placebo control. As for the experimental part: 2. Test for effect on endotoxin fatality
Individual injections of lipopolysaccharide (LPS), from gram-negative bacteria, lead via a series of various symptoms to septic shock, which usually turns out to be fatal. Endotoxin (LPS) from Salmonella abortus equi in a dose of 60 mg/kg i.p. leads to shock and to death with at most 72 h p.a. (the dose of 60 mg/kg corresponds to approximately 1.20 mg of LPS/animal).
The experimental animals used are female NMRI mice from the Hoechst AG/Hattersheim animal breeding unit having a body weight of 22 to 24 g.
The test substances administered intraperitoneally (i.p.) in an administration volume of 10 ml/kg at the same time as the LPS. The number of surviving animals after 72 hours' LPS administration is indicated in comparison to a placebo control. The number of tested animals per group is 5; dose 25 mg/kg.

Assay [6] relates to soleus muscle. As to the kind of experiment: rat muscle function test: muscle weight (atrophy of immobilized extremity). It is filed as in vivo, male Wistar rats. To be noted: oral, 1x per day for 3 weeks, as a rule 25 mg/kg, difference ≤25% classified as an effect. In a few lines:
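Male Wistar rats (~300 g) had the right hind limb immobilized in a padded plastic cast for 3 weeks with daily oral dosing by stomach tube, as a rule 25 mg/kg in carboxymethylcellulose. Soleus weight of the immobilized limb was compared with the contralateral limb; a difference of ≤25% was classed as an effect.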

In brackets after ≈: the same amount, converted by molar mass.

In the case of `CCOP(=O)(CCCn1cnc2c1c(=O)[nH]c(=O)n2C)OCC` [Example 2, Diethyl [4-(3-methylxanthin-7-yl)propyl]phosphonate], the EC50 in assay [1] and in assay [2] was over 10 mg/L each time. In addition, the IC50 in assay [3] and in assay [4] was 3 to 6 mg/L (≈ 8.71 to 17.4 µM) throughout. In assay [5], this compound had an Inhibition of mortality of 100%. For the same compound, in assay [6], the “Muscle weight (right/left difference)” value was -22 Δ %.
